Publication PMC4350077, “Mechanism of Action of Thalassospiramides, A New Class of Calpain Inhibitors” (Scientific Reports, 2015)
Like-named read-outs stand apart in the source and are kept apart here.

Biological target: T1, human calpain 1 protease (HCAN1) (Homo sapiens, UniProt P07384)
T1 construct: gene CAPN1; with Calpain small subunit 1
T1 sequence (P07384 2-714): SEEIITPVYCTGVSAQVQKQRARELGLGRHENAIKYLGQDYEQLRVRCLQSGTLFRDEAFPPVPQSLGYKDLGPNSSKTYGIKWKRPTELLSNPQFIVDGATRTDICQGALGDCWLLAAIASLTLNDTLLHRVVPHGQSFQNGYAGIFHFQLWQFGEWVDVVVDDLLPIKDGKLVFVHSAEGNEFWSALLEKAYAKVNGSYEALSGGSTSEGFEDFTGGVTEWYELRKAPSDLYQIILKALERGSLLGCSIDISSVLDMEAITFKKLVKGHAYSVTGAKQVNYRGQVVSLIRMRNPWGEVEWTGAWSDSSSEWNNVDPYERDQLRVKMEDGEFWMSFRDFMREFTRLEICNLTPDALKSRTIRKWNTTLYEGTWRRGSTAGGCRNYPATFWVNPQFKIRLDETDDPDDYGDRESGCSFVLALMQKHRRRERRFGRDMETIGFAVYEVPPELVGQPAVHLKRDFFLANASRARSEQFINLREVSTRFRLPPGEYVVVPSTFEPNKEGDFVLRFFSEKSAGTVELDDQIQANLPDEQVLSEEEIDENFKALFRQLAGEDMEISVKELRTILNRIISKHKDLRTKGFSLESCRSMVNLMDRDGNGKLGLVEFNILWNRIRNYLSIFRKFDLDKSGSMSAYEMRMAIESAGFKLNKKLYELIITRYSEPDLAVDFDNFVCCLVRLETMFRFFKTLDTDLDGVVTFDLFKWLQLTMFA
T1 sequence (P04632 1-268 partner): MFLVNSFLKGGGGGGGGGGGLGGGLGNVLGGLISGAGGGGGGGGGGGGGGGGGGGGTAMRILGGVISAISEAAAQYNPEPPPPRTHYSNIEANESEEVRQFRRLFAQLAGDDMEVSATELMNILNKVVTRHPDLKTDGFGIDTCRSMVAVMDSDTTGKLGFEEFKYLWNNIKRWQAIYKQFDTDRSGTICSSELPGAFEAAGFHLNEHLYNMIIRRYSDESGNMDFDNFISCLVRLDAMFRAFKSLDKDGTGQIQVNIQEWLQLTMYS
Test: fluorescence calpain activity assay kit (Ac-LLY-AFC)
Format: biochemical

IC50 [nM]	IC50 (Ac-LLY-AFC substrate, 37 °C, 1 h, covalent (Michael addition to Cys115)) [nM]	Compound
> 5000	–	CCCCCCCCCC(=O)N[C@@H](CO)C(=O)N[C@H](C(=O)N[C@@H](CO)[C@@H](O)CC(=O)N[C@H](C(=O)N[C@@H]1CCC(=O)N[C@@H](C(C)C)C(=O)N(C)[C@@H](Cc2ccc(O)cc2)C(=O)OC1)C(C)C)C(C)C [compound 3, 3]
–	3.4 ± 1.2	Thalassospiramide C [compound 4]
